Measurements published in patent publication US20180099931A1 (AbbVie S.à.r.l., priority 2016, published 2018).
Where two headings read alike, the source gives them in different places.

Molecular target: T1, F508delCFTR (Homo sapiens, UniProt P13569, DEL508-508)
T1 construct: expressed in transfected cells; host or cells: CFBE41o- human lung-derived epithelial cells (CFBE4lo-F508delCFTR-HRP), doxycycline-inducible
Experiment: Cell Surface Expression-Horse Radish Peroxidase (CSE-HRP) Assay;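 on Maximum % activity (with co-corrector): co-corrector and positive control are both the same reference corrector at 2 µM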;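 on Maximum % activity (without co-corrector): percent of the 2 µM on-plate positive control corrector response above DMSO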
Type: cell-based
Conditions: for Emax / Maximum % activity (with co-corrector): maximum at any tested concentration, normalized to on-plate positive control; for Emax: read-out: Maximum % activity (without co-corrector)
Experimental: Cell Surface Expression-Horse Radish Peroxidase (CSE-HRP) Assay;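 on Maximum % activity (with co-corrector): co-corrector and positive control are both the same reference corrector at 2 µM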;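 on Maximum % activity (without co-corrector): percent of the 2 µM on-plate positive control corrector response above DMSO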
The development was achieved by expressing the F508delCFTR mutation along with a horseradish peroxidase (HRP) in the fourth exofacial loop, and then measuring the HRP activity using luminescence readout from these cells, CFBE4lo-F508delCFTR-HRP, that were incubated overnight with the test corrector compounds, either without or with the co-corrector. […] The test compounds were then added either without or with a co-corrector at the required concentrations and further incubated for 18-24 hours at 33° C. The highest concentration tested was 20 μM with an 8-point concentration response curve using a 3-fold dilution in both the test compound without or with the co-corrector. Three replicate plates were run to determine one EC50. All plates contained negative controls (dimethyl sulfoxide, DMSO) and positive control (2 μM of 3-[(2R,4R)-4-({[1-(2,2-difluoro-1,3-benzodioxol-5-yl)cyclopropyl]carbonyl}amino)-7-methoxy-3,4-dihydro-2H-chromen-2-yl]benzoic acid) as well as on-plate concentration response of the positive control. […] The raw counts from the experiment were analyzed using Accelrys® Assay Explorer v3.3.
1−[3*SDPositive Control+3*SDNegative Control/Absolute(MeanPositive Control−MeanNegative Control)]
wherein “SD” is standard deviation.
The % activity measured at each of the 8 test concentrations of the test compound added either without or with a co-corrector (2 μM of 3-[(2R,4R)-4-({[1-(2,2-difluoro-1,3-benzodioxol-5-yl)cyclopropyl]carbonyl}amino)-7-methoxy-3,4-dihydro-2H-chromen-2-yl]benzoic acid) was normalized to the on-plate positive control using the following formulae:
% activity(Test compound without co-corrector)=[(test compound without co-corrector response−DMSO response)/(positive control response−DMSO response)]*100
% activity(Test compound with co-corrector)=[(test compound with co-corrector response−DMSO response)/(positive control response−DMSO response)]*100
The maximum % activity achieved for the test compound either without or with a co-corrector at any tested concentration is presented in Table 4 along with the respective EC50's calculated using the following general sigmoidal curve with variable Hill slope equation (described as Model 42 in the Accelrys® Assay Explorer v3.3 software):
General sigmoidal curve with concentration, response, top, bottom, EC50 and Hill slope. This model describes a sigmoidal curve with an adjustable baseline, a. The equation can be used to fit curves where response is either increasing or decreasing with respect to the independent variable, “x”.
“x” is a concentration of drug under test. “y” is the response. “a” is the maximum response, and “d” is the minimum response “c” is the inflection point (EC50) for the curve. That is, “y” is halfway between the lower and upper asymptotes when x=c. “b” is the slope-factor or Hill coefficient. The sign of b is positive when the response increases with increasing dose and is negative when the response decreases with increasing dose (inhibition).

[1] = test compound without co-corrector
[2] = test compound without co-corrector, read-out: EC50 (without co-corrector)
[3] = with co-corrector (2 μM of 3-[(2R,4R)-4-({[1-(2,2-difluoro-1,3-benzodioxol-5-yl)cyclopropyl]carbonyl}amino)-7-methoxy-3,4-dihydro-2H-chromen-2-yl]benzoic acid)
[4] = with co-corrector (2 μM of 3-[(2R,4R)-4-({[1-(2,2-difluoro-1,3-benzodioxol-5-yl)cyclopropyl]carbonyl}amino)-7-methoxy-3,4-dihydro-2H-chromen-2-yl]benzoic acid), read-out: EC50 (with co-corrector)

T1 sequence (P13569 with tags, fused parts or gaps DEL508-508): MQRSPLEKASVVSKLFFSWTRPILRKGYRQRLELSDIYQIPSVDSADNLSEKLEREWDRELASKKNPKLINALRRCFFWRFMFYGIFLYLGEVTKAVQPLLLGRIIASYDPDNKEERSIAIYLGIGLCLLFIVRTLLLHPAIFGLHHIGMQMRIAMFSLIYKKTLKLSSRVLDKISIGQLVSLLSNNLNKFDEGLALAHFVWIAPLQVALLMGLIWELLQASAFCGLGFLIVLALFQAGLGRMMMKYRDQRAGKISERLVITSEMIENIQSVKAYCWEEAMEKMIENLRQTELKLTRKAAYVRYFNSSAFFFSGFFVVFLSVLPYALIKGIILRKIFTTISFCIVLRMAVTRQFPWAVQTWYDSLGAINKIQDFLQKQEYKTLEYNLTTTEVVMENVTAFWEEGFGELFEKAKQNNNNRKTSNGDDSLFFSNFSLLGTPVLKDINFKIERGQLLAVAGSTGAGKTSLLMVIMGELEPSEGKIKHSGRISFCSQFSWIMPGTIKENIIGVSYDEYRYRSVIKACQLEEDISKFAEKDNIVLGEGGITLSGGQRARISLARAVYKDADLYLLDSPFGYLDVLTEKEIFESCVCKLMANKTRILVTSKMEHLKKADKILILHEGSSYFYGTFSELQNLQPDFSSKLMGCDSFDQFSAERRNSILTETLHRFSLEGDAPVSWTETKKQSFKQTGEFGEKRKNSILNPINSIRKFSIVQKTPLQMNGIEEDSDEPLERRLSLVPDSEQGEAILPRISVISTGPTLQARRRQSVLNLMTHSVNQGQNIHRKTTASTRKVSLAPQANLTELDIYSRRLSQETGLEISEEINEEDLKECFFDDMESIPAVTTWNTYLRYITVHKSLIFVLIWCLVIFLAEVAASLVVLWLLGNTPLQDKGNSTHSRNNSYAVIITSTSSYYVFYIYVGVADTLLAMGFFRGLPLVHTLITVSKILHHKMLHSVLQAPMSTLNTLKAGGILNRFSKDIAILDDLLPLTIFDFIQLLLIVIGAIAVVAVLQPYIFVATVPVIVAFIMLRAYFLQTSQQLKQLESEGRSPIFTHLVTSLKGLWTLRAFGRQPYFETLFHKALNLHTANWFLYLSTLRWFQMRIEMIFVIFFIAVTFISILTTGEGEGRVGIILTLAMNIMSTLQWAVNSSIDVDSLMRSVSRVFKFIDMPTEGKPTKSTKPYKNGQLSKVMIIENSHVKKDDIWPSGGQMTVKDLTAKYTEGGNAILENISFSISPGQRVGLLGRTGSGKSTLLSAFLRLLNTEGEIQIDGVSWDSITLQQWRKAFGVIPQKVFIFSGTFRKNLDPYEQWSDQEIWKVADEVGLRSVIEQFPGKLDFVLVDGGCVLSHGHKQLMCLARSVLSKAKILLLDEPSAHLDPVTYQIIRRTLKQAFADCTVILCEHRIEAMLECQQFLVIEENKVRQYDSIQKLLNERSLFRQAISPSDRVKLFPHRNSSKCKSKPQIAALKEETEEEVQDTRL

| SMILES | Emax [1] | EC50 [2] | Maximum % activity (with co-corrector) [3] | EC50 [4] |
| --- | --- | --- | --- | --- |
| COc1cc(C(F)(F)F)cc(N(C)[C@@H]2[C@@H](C(C)(C)C)[C@H](C(=O)O)N(C(=O)C3CCCCC3)[C@@H]2c2ccccc2)n1 (racemic) [III-17] | < 100% | > 10 µM | ++ (≥150 and <350) | 1 to 10 µM |
| COc1cccc(CN[C@@H]2[C@@H](C(C)(C)C)[C@H](C(=O)O)N(C(=O)C3CCCCC3)[C@@H]2c2ccccc2)n1 (racemic) [III-19] | < 100% | 1 to 10 µM | ++ (≥150 and <350) | 1 to 10 µM |
| COc1cc(OC)c(CN[C@@H]2[C@@H](C(C)(C)C)[C@H](C(=O)O)N(C(=O)C3CCCCC3)[C@@H]2c2ccccc2)cc1Cl (racemic) [III-20] | < 100% | 1 to 10 µM | ++ (≥150 and <350) | 1 to 10 µM |
| COc1cccnc1CN[C@@H]1[C@@H](C(C)(C)C)[C@H](C(=O)O)N(C(=O)C2CCCCC2)[C@@H]1c1ccccc1 (racemic) [III-21] | < 100% | > 10 µM | ++ (≥150 and <350) | 1 to 10 µM |
| COc1ccnc(CN[C@@H]2[C@@H](C(C)(C)C)[C@H](C(=O)O)N(C(=O)C3CCCCC3)[C@@H]2c2ccccc2)n1 (racemic) [III-22] | < 100% | > 10 µM | + (<150) | > 10 µM |
| CC(C)(C)[C@@H]1[C@@H](Nc2cc(C(F)(F)F)cc(=O)[nH]2)[C@@H](c2ccccc2)N(C(=O)C2CCCCC2)[C@H]1C(=O)O (racemic) [III-23] | < 100% | > 10 µM | + (<150) | > 10 µM |
| COCCn1ccnc1CN[C@@H]1[C@@H](C(C)(C)C)[C@H](C(=O)O)N(C(=O)C2CCCCC2)[C@@H]1c1ccccc1 (racemic) [III-24] | < 100% | > 10 µM | + (<150) | > 10 µM |
| COc1ccc(CN[C@@H]2[C@@H](C(C)(C)C)[C@H](C(=O)O)N(C(=O)C3CCCCC3)[C@@H]2c2ccccc2)cn1 (racemic) [III-25] | < 100% | > 10 µM | ++ (≥150 and <350) | 1 to 10 µM |
| COc1ccc(Cl)cc1CN[C@@H]1[C@@H](C(C)(C)C)[C@H](C(=O)O)N(C(=O)C2CCCCC2)[C@@H]1c1ccccc1 (racemic) [III-27] | > 200% | 1 to 10 µM | +++ (≥350) | 1 to 10 µM |
| CC(C)(C)[C@@H]1[C@@H](NCc2cccnc2N2CCOCC2)[C@@H](c2ccccc2)N(C(=O)C2CCCCC2)[C@H]1C(=O)O (racemic) [III-28] | < 100% | 1 to 10 µM | ++ (≥150 and <350) | 1 to 10 µM |
| COc1ncc(CN[C@@H]2[C@@H](C(C)(C)C)[C@H](C(=O)O)N(C(=O)C3CCCCC3)[C@@H]2c2ccccc2)c(OC)n1 (racemic) [III-29] | < 100% | 1 to 10 µM | ++ (≥150 and <350) | 1 to 10 µM |
| COc1cc(Cl)ccc1CN[C@@H]1[C@@H](C(C)(C)C)[C@H](C(=O)O)N(C(=O)C2CCCCC2)[C@@H]1c1ccccc1 (racemic) [III-30] | > 200% | 1 to 10 µM | +++ (≥350) | 1 to 10 µM |
| CC(C)(C)[C@@H]1[C@@H](Nc2cc(C(F)(F)F)cc[n+]2[O-])[C@@H](c2ccccc2)N(C(=O)C2CCCCC2)[C@H]1C(=O)O (racemic) [III-31] | < 100% | > 10 µM | ++ (≥150 and <350) | 1 to 10 µM |
| Cc1cc(C(F)(F)F)cc(N[C@@H]2[C@@H](C(C)(C)C)[C@H](C(=O)O)N(C(=O)C3CCCCC3)[C@@H]2c2ccccc2)[n+]1[O-] (racemic) [III-32] | < 100% | 1 to 10 µM | ++ (≥150 and <350) | 1 to 10 µM |
